The CheMixHub viscosity set

Test: xn = mol fraction of the nth substance listed

BrC(Br)Br + Nc1ccccc1Cl
viscosity [mPa·s], 101 kPa
Details | x1 = 0.1006 | x1 = 0.1969 | x1 = 0.3023 | x1 = 0.3984 | x1 = 0.5023 | x1 = 0.5997 | x1 = 0.6951 | x1 = 0.8013 | x1 = 0.8983
298.15 K | 2.948 | 2.901 | 2.784 | 2.699 | 2.585 | 2.453 | 2.342 | 2.208 | 2.096
303.15 K | 2.693 | 2.616 | 2.509 | 2.425 | 2.326 | 2.244 | 2.15 | 2.045 | 1.955
308.15 K | 2.378 | 2.33 | 2.267 | 2.197 | 2.122 | 2.065 | 1.981 | 1.896 | 1.82
313.15 K | 2.122 | 2.102 | 2.062 | 1.995 | 1.96 | 1.896 | 1.831 | 1.764 | 1.697

BrC(Br)Br + CN(C)C=O
Details | viscosity [mPa·s]
298 K, 101.3 kPa, x1 = 0.1418 | 1.075
298 K, 101.3 kPa, x1 = 0.2704 | 1.355
298 K, 101.3 kPa, x1 = 0.463 | 1.794
298 K, 101.3 kPa, x1 = 0.6145 | 2.007
298 K, 101.3 kPa, x1 = 0.7144 | 2.037
298 K, 101.3 kPa, x1 = 0.818 | 2.016
298.15 K, 101 kPa, x1 = 0.1458 | 1.048
298.15 K, 101 kPa, x1 = 0.1971 | 1.237
298.15 K, 101 kPa, x1 = 0.2942 | 1.486
298.15 K, 101 kPa, x1 = 0.3961 | 1.703
298.15 K, 101 kPa, x1 = 0.4962 | 1.956
298.15 K, 101 kPa, x1 = 0.5972 | 2.102
298.15 K, 101 kPa, x1 = 0.6959 | 2.122
298.15 K, 101 kPa, x1 = 0.7985 | 2.147
298.15 K, 101 kPa, x1 = 0.8992 | 2.074
303.15 K, 101 kPa, x1 = 0.1458 | 0.9843
303.15 K, 101 kPa, x1 = 0.1971 | 1.162
303.15 K, 101 kPa, x1 = 0.2942 | 1.371
303.15 K, 101 kPa, x1 = 0.3961 | 1.567
303.15 K, 101 kPa, x1 = 0.4962 | 1.793
303.15 K, 101 kPa, x1 = 0.5972 | 1.927
303.15 K, 101 kPa, x1 = 0.6959 | 1.953
303.15 K, 101 kPa, x1 = 0.7985 | 1.966
303.15 K, 101 kPa, x1 = 0.8992 | 1.934
308.15 K, 101 kPa, x1 = 0.1458 | 0.9091
308.15 K, 101 kPa, x1 = 0.1971 | 1.066
308.15 K, 101 kPa, x1 = 0.2942 | 1.267
308.15 K, 101 kPa, x1 = 0.3961 | 1.443
308.15 K, 101 kPa, x1 = 0.4962 | 1.643
308.15 K, 101 kPa, x1 = 0.5972 | 1.765
308.15 K, 101 kPa, x1 = 0.6959 | 1.801
308.15 K, 101 kPa, x1 = 0.7985 | 1.839
308.15 K, 101 kPa, x1 = 0.8992 | 1.797
313.15 K, 101 kPa, x1 = 0.1458 | 0.8479
313.15 K, 101 kPa, x1 = 0.1971 | 1
313.15 K, 101 kPa, x1 = 0.2942 | 1.173
313.15 K, 101 kPa, x1 = 0.3961 | 1.329
313.15 K, 101 kPa, x1 = 0.4962 | 1.513
313.15 K, 101 kPa, x1 = 0.5972 | 1.622
313.15 K, 101 kPa, x1 = 0.6959 | 1.66
313.15 K, 101 kPa, x1 = 0.7985 | 1.705
313.15 K, 101 kPa, x1 = 0.8992 | 1.679
318 K, 101.33 kPa, x1 = 0.1317 | 0.819
318 K, 101.33 kPa, x1 = 0.2705 | 1.046
318 K, 101.33 kPa, x1 = 0.4636 | 1.313
318 K, 101.33 kPa, x1 = 0.6142 | 1.471
318 K, 101.33 kPa, x1 = 0.7204 | 1.518
318 K, 101.33 kPa, x1 = 0.8296 | 1.519

CCCCCCCCO + Cc1ccccc1
viscosity [mPa·s], 101 kPa
Details | 298.15 K | 308.15 K
x2 = 0.0495 | 6.43 | 4.918
x2 = 0.1104 | 5.45 | 4.28
x2 = 0.1513 | 4.841 | 3.853
x2 = 0.1999 | 4.2 | 3.402
x2 = 0.2517 | 3.646 | 3.009
x2 = 0.2997 | 3.252 | 2.674
x2 = 0.356 | 2.717 | 2.317
x2 = 0.3998 | 2.395 | 2.048
x2 = 0.4506 | 2.092 | 1.825
x2 = 0.5001 | 1.84 | 1.637
x2 = 0.5513 | 1.598 | 1.42
x2 = 0.6014 | 1.404 | 1.272
x2 = 0.6495 | 1.244 | 1.119
x2 = 0.6997 | 1.098 | 1.015
x2 = 0.7569 | 0.96 | 0.87
x2 = 0.8012 | 0.859 | 0.779
x2 = 0.8527 | 0.769 | 0.699
x2 = 0.9 | 0.674 | 0.61
x2 = 0.954 | 0.612 | 0.554
